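Exposure lasted 48 hours, with cells grown in 96-well plates and compounds tested at five concentrations. At the GI50, growth is halved. TGI denotes the concentration required for complete inhibition of growth.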
Experiments:
Assay in all cases: inhibition of tumour cell growth, NCI panel, 48 h
[1] = system: NCI-H23 lung
[2] = system: KM12 colon
[3] = system: RPMI-8226 leukemia
[4] = system: SK-MEL-5 melanoma
[5] = system: HCT-116 colon
[6] = system: UO-31 renal
[7] = system: UACC-257 melanoma
[8] = system: MALME-3M melanoma
[9] = system: NCI-H226 lung
[10] = system: LOX IMVI melanoma

**Q.** What does the source list for CN=C(N)/N=C(\N)Nc1cc2ccccc2c2ccccc12?
**A.** TGI [1]: 33.2 µM; TGI [2]: 34.6 µM; TGI [3]: 43.3 µM; TGI [4]: 30.6 µM; TGI [5]: 26 µM; TGI [6]: 27.4 µM; TGI [7]: 30.9 µM; TGI [8]: 29.3 µM; TGI [9]: 37.4 µM; TGI [10]: 29.7 µM

**Q.** Which GI50 [1] does the source give for CCCC1=C(C(=O)OCC)C(c2ccccc2OC)C(C#N)=C(N)O1 (centres undefined) here?
**A.** > 100 µM

**Q.** And the TGI [1]?
**A.** > 100 µM

**Q.** And the GI50 [2]?
**A.** 21.1 µM

**Q.** What about the TGI [2] of the same compound?
**A.** > 100 µM

**Q.** And the GI50 [3]?
**A.** 13.3 µM

**Q.** What about the TGI [3] of the same compound?
**A.** 32.2 µM

**Q.** What about the GI50 [4] of the same compound?
**A.** 23.9 µM

**Q.** What about the TGI [4] of the same compound?
**A.** 64.7 µM

**Q.** What about the GI50 [5] of the same compound?
**A.** 31.8 µM

**Q.** What about the TGI [5] of the same compound?
**A.** > 100 µM

**Q.** What about the GI50 [6] of the same compound?
**A.** 37.5 µM

**Q.** What about the TGI [6] of the same compound?
**A.** > 100 µM

**Q.** What about the GI50 [7] of the same compound?
**A.** 65.5 µM

**Q.** What about the TGI [7] of the same compound?
**A.** > 100 µM

**Q.** What about the GI50 [8] of the same compound?
**A.** 27.8 µM

**Q.** And the TGI [8]?
**A.** > 100 µM

**Q.** And the GI50 [9]?
**A.** 22.5 µM

**Q.** And the TGI [9]?
**A.** 58.2 µM

**Q.** What about the GI50 [10] of the same compound?
**A.** 29.9 µM

**Q.** What about the TGI [10] of the same compound?
**A.** > 100 µM

**Q.** How did the TGI [1] turn out when CCOC(=O)C(=O)Nc1c(CC)cccc1C(C)CC (centres undefined) was run?
**A.** > 100 µM

**Q.** What about the TGI [2] of the same compound?
**A.** > 100 µM

**Q.** And the TGI [3]?
**A.** > 100 µM

**Q.** What about the TGI [4] of the same compound?
**A.** > 100 µM

**Q.** What about the TGI [5] of the same compound?
**A.** > 100 µM

**Q.** And the TGI [6]?
**A.** > 100 µM

**Q.** What about the TGI [7] of the same compound?
**A.** > 100 µM

**Q.** And the TGI [8]?
**A.** > 100 µM

**Q.** What about the TGI [9] of the same compound?
**A.** > 100 µM

**Q.** What about the TGI [10] of the same compound?
**A.** > 100 µM

**Q.** N#CCCOCN(CO)c1nc(N(CO)COCCC#N)nc(N(CO)COCCC#N)n1 was tested. Which TGI [1] did it give?
**A.** 71.5 µM

**Q.** What about the TGI [2] of the same compound?
**A.** > 100 µM

**Q.** What about the TGI [3] of the same compound?
**A.** 56.1 µM

**Q.** What about the TGI [5] of the same compound?
**A.** 63.8 µM

**Q.** And the TGI [6]?
**A.** 43.2 µM

**Q.** And the TGI [7]?
**A.** 63.9 µM

**Q.** And the TGI [8]?
**A.** 46.9 µM

**Q.** What about the TGI [9] of the same compound?
**A.** 53.1 µM

**Q.** And the TGI [10]?
**A.** > 100 µM

**Q.** Which TGI [1] does the source give for CC(=O)N1CC(=O)NC1=S here?
**A.** > 100 µM

**Q.** And the TGI [2]?
**A.** > 100 µM

**Q.** What about the TGI [3] of the same compound?
**A.** > 100 µM

**Q.** And the TGI [4]?
**A.** > 100 µM

**Q.** And the TGI [5]?
**A.** > 100 µM

**Q.** And the TGI [6]?
**A.** > 100 µM

**Q.** What about the TGI [7] of the same compound?
**A.** > 100 µM

**Q.** What about the TGI [8] of the same compound?
**A.** > 100 µM

**Q.** What about the TGI [9] of the same compound?
**A.** > 100 µM

**Q.** What about the TGI [10] of the same compound?
**A.** > 100 µM

**Q.** What does the source list for COc1cc2c(cc1OC)C1Cc3cc(OC)c(OC)cc3C(C2)O1?
**A.** TGI [1]: > 100 µM; TGI [2]: > 100 µM; TGI [3]: > 100 µM; TGI [5]: > 100 µM; TGI [6]: > 100 µM; TGI [7]: > 100 µM; TGI [9]: > 100 µM; TGI [10]: > 100 µM

**Q.** How did the TGI [1] turn out when Nc1cccc2c1C1=NNC(=O)CC1C2 (centres undefined) was run?
**A.** > 20.3 µM

**Q.** And the TGI [2]?
**A.** > 100 µM

**Q.** And the TGI [3]?
**A.** > 100 µM

**Q.** And the TGI [4]?
**A.** > 100 µM

**Q.** What about the TGI [5] of the same compound?
**A.** > 100 µM

**Q.** What about the TGI [6] of the same compound?
**A.** > 100 µM

**Q.** What about the TGI [7] of the same compound?
**A.** > 100 µM

**Q.** What about the TGI [8] of the same compound?
**A.** > 100 µM

**Q.** What about the TGI [9] of the same compound?
**A.** > 100 µM

**Q.** What about the TGI [10] of the same compound?
**A.** > 100 µM

**Q.** Which TGI [1] does the source give for NC(=O)Nc1ccc(C(=O)NCCCNC(=O)c2ccc(NC(N)=O)cc2)cc1 here?
**A.** > 100 µM

**Q.** And the TGI [2]?
**A.** > 100 µM

**Q.** What about the TGI [3] of the same compound?
**A.** > 100 µM

**Q.** And the TGI [4]?
**A.** > 100 µM

**Q.** What about the TGI [5] of the same compound?
**A.** > 100 µM

**Q.** And the TGI [6]?
**A.** > 100 µM

**Q.** And the TGI [7]?
**A.** > 100 µM

**Q.** What about the TGI [8] of the same compound?
**A.** > 100 µM

**Q.** And the TGI [9]?
**A.** > 100 µM

**Q.** And the TGI [10]?
**A.** > 100 µM

**Q.** Cc1c2cc[n+](C)cc2c(C)c2c1[nH]c1ccc(Cl)cc12 was tested. Which TGI [1] did it give?
**A.** 9.12 µM

**Q.** And the TGI [2]?
**A.** 35.5 µM

**Q.** And the TGI [3]?
**A.** > 95.6 µM

**Q.** And the TGI [4]?
**A.** 5.99 µM

**Q.** And the TGI [5]?
**A.** 32.2 µM

**Q.** And the TGI [6]?
**A.** 42.8 µM

**Q.** What about the TGI [7] of the same compound?
**A.** 62.3 µM

**Q.** And the TGI [8]?
**A.** 10.4 µM

**Q.** And the TGI [9]?
**A.** 4.57 µM

**Q.** What about the TGI [10] of the same compound?
**A.** 77.8 µM

**Q.** O=C(Nc1cccc([N+](=O)[O-])c1)C(=O)C(C(=O)c1ccccc1F)C1OC(=O)C2C=CC=CC21 (centres undefined) was tested. Which TGI [1] did it give?
**A.** > 100 µM

**Q.** What about the TGI [2] of the same compound?
**A.** > 100 µM

**Q.** What about the TGI [3] of the same compound?
**A.** > 100 µM

**Q.** What about the TGI [4] of the same compound?
**A.** > 100 µM

**Q.** What about the TGI [5] of the same compound?
**A.** 48.3 µM

**Q.** And the TGI [6]?
**A.** > 100 µM

**Q.** What about the TGI [7] of the same compound?
**A.** > 100 µM

**Q.** And the TGI [9]?
**A.** 52.9 µM

**Q.** What about the TGI [10] of the same compound?
**A.** 51.7 µM

**Q.** What does the source list for COc1cc(NC(=O)CSc2nc3ccccc3c(=O)n2CCc2ccccc2)cc(OC)c1OC?
**A.** GI50 [8]: 2.16 µM; TGI [8]: 5.9 µM; GI50 [9]: 2.14 µM; TGI [9]: 7.16 µM; GI50 [10]: 4.11 µM; TGI [10]: > 100 µM

**Q.** CNS(=O)(=O)c1ccc2[nH]c(O)c(C3=Nc4ccccc4C3=O)c2c1 was tested. Which TGI [1] did it give?
**A.** > 100 µM

**Q.** And the TGI [3]?
**A.** > 100 µM

**Q.** And the TGI [4]?
**A.** > 100 µM

**Q.** And the TGI [5]?
**A.** > 100 µM

**Q.** And the TGI [6]?
**A.** > 100 µM

**Q.** And the TGI [7]?
**A.** > 100 µM

**Q.** And the TGI [8]?
**A.** > 100 µM

**Q.** What about the TGI [9] of the same compound?
**A.** > 100 µM

**Q.** And the TGI [10]?
**A.** > 100 µM

**Q.** With O=C(NCCNc1nccc(-c2c(-c3cccc(O)c3)nc3sccn23)n1)Nc1cccc(C(F)(F)F)c1 as the compound, how does the GI50 [1] read?
**A.** 4.62 µM

**Q.** What about the TGI [1] of the same compound?
**A.** 32.5 µM

**Q.** And the GI50 [2]?
**A.** 2.78 µM

**Q.** And the TGI [2]?
**A.** 6.98 µM

**Q.** What about the GI50 [3] of the same compound?
**A.** 2.52 µM

**Q.** What about the TGI [3] of the same compound?
**A.** 5.46 µM

**Q.** What about the GI50 [4] of the same compound?
**A.** 2.62 µM

**Q.** What about the TGI [4] of the same compound?
**A.** 8.43 µM

**Q.** What about the GI50 [5] of the same compound?
**A.** 3.56 µM

**Q.** What about the TGI [5] of the same compound?
**A.** 11.5 µM

**Q.** What about the GI50 [6] of the same compound?
**A.** 3.25 µM

**Q.** What about the TGI [6] of the same compound?
**A.** 16.8 µM

**Q.** What about the GI50 [7] of the same compound?
**A.** 2.51 µM

**Q.** What about the TGI [7] of the same compound?
**A.** 6.94 µM

**Q.** What about the GI50 [8] of the same compound?
**A.** 2.09 µM

**Q.** And the TGI [8]?
**A.** 7.3 µM

**Q.** What about the GI50 [9] of the same compound?
**A.** 9.99 µM

**Q.** What about the TGI [9] of the same compound?
**A.** 28.5 µM

**Q.** And the GI50 [10]?
**A.** 4.05 µM

**Q.** What about the TGI [10] of the same compound?
**A.** 26.2 µM

**Q.** How did the TGI [1] turn out when Cc1ccc2ccc3ccc(C)nc3c2n1 was run?
**A.** > 100 µM

**Q.** And the TGI [2]?
**A.** > 100 µM

**Q.** What about the TGI [3] of the same compound?
**A.** > 100 µM

**Q.** And the TGI [4]?
**A.** > 100 µM

**Q.** What about the TGI [5] of the same compound?
**A.** > 44.7 µM

**Q.** And the TGI [6]?
**A.** > 100 µM

**Q.** And the TGI [7]?
**A.** > 100 µM

**Q.** And the TGI [8]?
**A.** > 100 µM

**Q.** What about the TGI [9] of the same compound?
**A.** > 100 µM

**Q.** What about the TGI [10] of the same compound?
**A.** > 100 µM

**Q.** How did the TGI [1] turn out when C[C@H](N[C@H]1CCC[C@]1(O)C#Cc1ccc2c(c1)OCO2)c1ccccc1 was run?
**A.** > 25 µM

**Q.** What about the TGI [2] of the same compound?
**A.** > 25 µM

**Q.** And the TGI [3]?
**A.** 16.9 µM

**Q.** What about the TGI [4] of the same compound?
**A.** > 25 µM

**Q.** What about the TGI [6] of the same compound?
**A.** > 25 µM

**Q.** And the TGI [7]?
**A.** > 25 µM

**Q.** What about the TGI [9] of the same compound?
**A.** > 25 µM

**Q.** And the TGI [10]?
**A.** > 25 µM
